Measurements taken from article PMC5326599 (Antiviral research, 2017).
Values joined by “and” are separate entries in the source; they are usually repeats but may differ in a detail not shown here. Equal entries are not always repeated. Marks after values point to notes of the source that are not given here.

Assays:
[1] = tested on: A/Udorn/72 (H3N2) virus (M2-WT); test: microbe, parasite or virus in culture; type: cell-based; conditions: Influenza A virus, H3N2, MDCK, read-out: Antiviral Efficacy EC50, A/Udorn/72 (H3N2) M2-WT
[2] = tested on: influenza A/Solomon Islands/3/2006 (H1N1) virus; set-up: species or system BALB/c mice; conditions: mouse, in vivo
MDCK cells = conditions: read-out: Cytotoxicity CC50, neutral red, 24 h
[3] = mouse, in vivo

## NC12CC3CC(CC(C3)C1)C2 [Amantadine (1), amantadine]
[1]
  EC50: […]
[2]
  MDD ± SD (mean day of death): 13.0 ± 6.4 days and 9.4 ± 1.9 days

## NC1CCC2(CC1)C1CC3CC(C1)CC2C3 (stereo not drawn) [Compound 3, spiroadamantane amine]
[2]
  Survivors/Total: 7/10^*** and 1/10 and 0/10
  survival rate / protection: 70%
MDCK cells
  CC50: 27.6 ± 0.5 µM
[3]
  body weight difference compared to placebos and normal control animals: 3%
  tolerability: well tolerated
